Values quoted from earlier work, collected in patent publication US12616202B2, “Agricultural formulations, uses thereof and processes for preparation thereof” (priority 2018, dated 2026).

## COCC(=O)N(c1c(C)cccc1C)C(C)C(=O)OC (stereo not shown) [metalaxyl, Metalaxyl]
  water solubility: 8,400 parts per million
